Assay results taken from ChEMBL document CHEMBL1135867, “Synthesis, photobiological activity and photoreactivity of methyl-thieno-8-azacoumarins, novel bioisosters of psoralen” (Bioorg Med Chem Lett, 2002).
Activity calls are given as the source filed them. The rule behind the calls is not given here.

Experiments:
Cavia porcellus [1] = assay: Skin phototoxicity was evaluated after UVA irradiation at a dose of 0.05 (umol cm e-2) and formation of erythema was reported; Strong (with edema); format: functional, organism-based
Cavia porcellus [2] = organism: Cavia porcellus; assay: Skin phototoxicity was evaluated after UVA irradiation at a dose of 0.2 (umol cm e-2) and formation of erythema was reported; Absent; format: functional, organism-based
HL-60 = assay: Compound was evaluated for its antiproliferative activity after UVA irradiation on human tumor HL-60 cell line; format: functional, cell-based; settings: HL-60, light or radiation study
HeLa = assay: Compound was evaluated for its antiproliferative activity after UVA irradiation on human tumor HeLa cell line; format: functional, cell-based; settings: light or radiation study

Row | SMILES | Formation of erythema (Cavia porcellus [1]) | Formation of erythema (Cavia porcellus [2]) | IC50 (HL-60) | IC50 (HeLa)
1 | COc1c2occc2cc2ccc(=O)oc12 | Active |  |  | 
2 | Cc1sc2nc3oc(=O)cc(C)c3cc2c1C |  | inactive | 7.3 µM | > 20 µM
3 | Cc1cc(=O)oc2nc3scc(C)c3cc12 |  | inactive | 2.2 µM | 8.9 µM
